# From PubChem BioAssay (NCI)
#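 Test compounds were applied to cells in 96-well plates for 48 hours at 5 doses. GI50: concentration for 50% inhibition of growth. TGI is the concentration that stops growth completely.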
# Columns and labels:
# Experiment in all cases: DTP human tumour cell line panel, 48 h
# SK-MEL-5 melanoma = system: SK-MEL-5 melanoma
# NCI/ADR-RES ovarian = system: NCI/ADR-RES ovarian
# 786-0 renal = system: 786-0 renal
# M14 melanoma = system: M14 melanoma
# HOP-62 NSCLC = system: HOP-62 NSCLC
# CCRF-CEM leukemia = system: CCRF-CEM leukemia
# SNB-75 CNS = system: SNB-75 CNS
# UACC-257 melanoma = system: UACC-257 melanoma
# BT-549 breast = system: BT-549 breast
# NCI-H226 lung = system: NCI-H226 lung
# EKVX NSCLC = system: EKVX NSCLC
# PC-3 prostate = system: PC-3 prostate
# UACC-62 melanoma = system: UACC-62 melanoma
# UO-31 renal = system: UO-31 renal
# U251 CNS = system: U251 CNS
# SK-MEL-28 melanoma = system: SK-MEL-28 melanoma
# SR leukemia = system: SR leukemia
# SF-295 CNS = system: SF-295 CNS
# RPMI-8226 leukemia = system: RPMI-8226 leukemia
# IGROV1 ovarian = system: IGROV1 ovarian
# HL-60(TB) leukemia = system: HL-60(TB) leukemia
# HCT-15 colon = system: HCT-15 colon
# RXF 393 renal = system: RXF 393 renal
# A498 renal = system: A498 renal
# HOP-92 NSCLC = system: HOP-92 NSCLC
# OVCAR-5 ovarian = system: OVCAR-5 ovarian
# A549 NSCLC = system: A549 NSCLC
# SF-539 CNS = system: SF-539 CNS
# SW-620 colon = system: SW-620 colon
# T-47D breast = system: T-47D breast
# SK-OV-3 ovarian = system: SK-OV-3 ovarian
# TK-10 renal = system: TK-10 renal
# HCT-116 colon = system: HCT-116 colon
# SN12C renal = system: SN12C renal
# HCC-2998 colon = system: HCC-2998 colon
# HT29 colon = system: HT29 colon
# MDA-MB-435 = system: MDA-MB-435
# SNB-19 CNS = system: SNB-19 CNS
# OVCAR-4 ovarian = system: OVCAR-4 ovarian
# DU-145 prostate = system: DU-145 prostate
# NCI-H460 lung = system: NCI-H460 lung
# COLO 205 colon = system: COLO 205 colon
# KM12 colon = system: KM12 colon
# LOX IMVI melanoma = system: LOX IMVI melanoma
# NCI-H522 lung = system: NCI-H522 lung
# SF-268 CNS = system: SF-268 CNS
# SK-MEL-2 melanoma = system: SK-MEL-2 melanoma
# K-562 leukemia = system: K-562 leukemia
# ACHN renal = system: ACHN renal
# OVCAR-8 ovarian = system: OVCAR-8 ovarian
# HS 578T breast = system: HS 578T breast
# MALME-3M melanoma = system: MALME-3M melanoma
# MOLT-4 leukemia = system: MOLT-4 leukemia
# MCF7 breast = system: MCF7 breast
# MDA-MB-231 breast = system: MDA-MB-231 breast
# CAKI-1 renal = system: CAKI-1 renal
compound,measurement,setting,value
CCNC(=O)Oc1ccc(/C(=C(/C)c2ccc(Cl)cc2)c2ccc(OCCN3CCCCCC3)cc2)cc1,GI50,SK-MEL-5 melanoma,1680 nM
same,TGI,SK-MEL-5 melanoma,3050 nM
same,GI50,NCI/ADR-RES ovarian,1840 nM
same,TGI,NCI/ADR-RES ovarian,3750 nM
same,GI50,786-0 renal,1610 nM
same,TGI,786-0 renal,3020 nM
same,GI50,M14 melanoma,1700 nM
same,TGI,M14 melanoma,3130 nM
same,GI50,HOP-62 NSCLC,1550 nM
same,TGI,HOP-62 NSCLC,3000 nM
same,GI50,CCRF-CEM leukemia,1640 nM
same,TGI,CCRF-CEM leukemia,9810 nM
same,GI50,SNB-75 CNS,1990 nM
same,TGI,SNB-75 CNS,4020 nM
same,GI50,UACC-257 melanoma,1710 nM
same,TGI,UACC-257 melanoma,3300 nM
same,GI50,BT-549 breast,1740 nM
same,TGI,BT-549 breast,3140 nM
same,GI50,NCI-H226 lung,2610 nM
same,TGI,NCI-H226 lung,8200 nM
same,GI50,EKVX NSCLC,1910 nM
same,TGI,EKVX NSCLC,4770 nM
same,GI50,PC-3 prostate,1780 nM
same,TGI,PC-3 prostate,3530 nM
same,GI50,UACC-62 melanoma,1790 nM
same,TGI,UACC-62 melanoma,3280 nM
same,GI50,UO-31 renal,1440 nM
same,TGI,UO-31 renal,2790 nM
same,GI50,U251 CNS,1490 nM
same,TGI,U251 CNS,2860 nM
same,GI50,SK-MEL-28 melanoma,1740 nM
same,TGI,SK-MEL-28 melanoma,3180 nM
same,GI50,SR leukemia,1350 nM
same,TGI,SR leukemia,4910 nM
same,GI50,SF-295 CNS,1600 nM
same,TGI,SF-295 CNS,2970 nM
same,GI50,RPMI-8226 leukemia,1800 nM
same,TGI,RPMI-8226 leukemia,3930 nM
same,GI50,IGROV1 ovarian,1800 nM
same,TGI,IGROV1 ovarian,3410 nM
same,GI50,HL-60(TB) leukemia,1820 nM
same,TGI,HL-60(TB) leukemia,4450 nM
same,GI50,HCT-15 colon,1500 nM
same,TGI,HCT-15 colon,2910 nM
same,GI50,RXF 393 renal,1460 nM
same,TGI,RXF 393 renal,2930 nM
same,GI50,A498 renal,1750 nM
same,TGI,A498 renal,3780 nM
same,GI50,HOP-92 NSCLC,1410 nM
same,TGI,HOP-92 NSCLC,2860 nM
same,GI50,OVCAR-5 ovarian,1990 nM
same,TGI,OVCAR-5 ovarian,4380 nM
same,GI50,A549 NSCLC,1700 nM
same,TGI,A549 NSCLC,3270 nM
same,GI50,SF-539 CNS,1720 nM
same,TGI,SF-539 CNS,3140 nM
same,GI50,SW-620 colon,1710 nM
same,TGI,SW-620 colon,3220 nM
same,GI50,T-47D breast,1390 nM
same,TGI,T-47D breast,4190 nM
same,GI50,SK-OV-3 ovarian,1870 nM
same,TGI,SK-OV-3 ovarian,3700 nM
same,GI50,TK-10 renal,2270 nM
same,TGI,TK-10 renal,6750 nM
same,GI50,HCT-116 colon,1620 nM
same,TGI,HCT-116 colon,3000 nM
same,GI50,SN12C renal,1670 nM
same,TGI,SN12C renal,3180 nM
same,GI50,HCC-2998 colon,1720 nM
same,TGI,HCC-2998 colon,3160 nM
same,GI50,HT29 colon,1700 nM
same,TGI,HT29 colon,3270 nM
same,GI50,MDA-MB-435,1770 nM
same,TGI,MDA-MB-435,3240 nM
same,GI50,SNB-19 CNS,2500 nM
same,TGI,SNB-19 CNS,6880 nM
same,GI50,OVCAR-4 ovarian,1960 nM
same,TGI,OVCAR-4 ovarian,4550 nM
same,GI50,DU-145 prostate,2290 nM
same,TGI,DU-145 prostate,5370 nM
same,GI50,NCI-H460 lung,1750 nM
same,TGI,NCI-H460 lung,3240 nM
same,GI50,COLO 205 colon,1740 nM
same,TGI,COLO 205 colon,3180 nM
same,GI50,KM12 colon,2630 nM
same,TGI,KM12 colon,6800 nM
same,GI50,LOX IMVI melanoma,1690 nM
same,TGI,LOX IMVI melanoma,3120 nM
same,GI50,NCI-H522 lung,1780 nM
same,TGI,NCI-H522 lung,3460 nM
same,GI50,SF-268 CNS,2200 nM
same,TGI,SF-268 CNS,5540 nM
same,GI50,SK-MEL-2 melanoma,1770 nM
same,TGI,SK-MEL-2 melanoma,3330 nM
same,GI50,K-562 leukemia,1390 nM
same,TGI,K-562 leukemia,3950 nM
same,GI50,ACHN renal,1750 nM
same,TGI,ACHN renal,3200 nM
same,GI50,OVCAR-8 ovarian,1780 nM
same,TGI,OVCAR-8 ovarian,3400 nM
same,GI50,HS 578T breast,1950 nM
same,TGI,HS 578T breast,4260 nM
same,GI50,MALME-3M melanoma,1780 nM
same,TGI,MALME-3M melanoma,3420 nM
same,GI50,MOLT-4 leukemia,2100 nM
same,TGI,MOLT-4 leukemia,6060 nM
same,GI50,MCF7 breast,404 nM
same,TGI,MCF7 breast,2320 nM
same,GI50,MDA-MB-231 breast,1840 nM
same,TGI,MDA-MB-231 breast,3480 nM
same,GI50,CAKI-1 renal,1640 nM
same,TGI,CAKI-1 renal,3090 nM
